Results taken from patent US5968910A, “Compositions containing two or three inhibitors of different HIV reverse transcriptases” (priority 1994, dated 1999).
pIC50: −log10 of the molar value. Values after ≈ are worked out from the molar mass of the structure shown. Read-outs that look alike come from different tables or passages of the source.

What was measured:
[1] = test system: HIV-1(IIIB) (WT); test: microbe, parasite or virus in culture; format: cell-based; settings: Human immunodeficiency virus 1, IIIB, CCRF-CEM
Protocol: (§1) CEM cells were suspended at 250,000 cells per ml of culture medium and infected with wild-type HIV-I(IIIB) or mutant HIV-1 strains at 100 50% cell culture infective doses per ml. Then 100 μl of the infected cell suspensions was added to 200-μl microtiter plate wells containing 100 μl of an appropriate dilution of the test compounds. After 4 days incubation at 37° C., the cell cultures were examined for syncytium formation.

[2] = test system: HIV-1/B 101Glu; test: Sensitivity of mutant HIV-1 strain in CEM cell cultures; format: cell-based; settings: Human immunodeficiency virus 1, CCRF-CEM; Table 5; read-out: EC50
Protocol: as §1

[3] = test system: HIV-1/I(0.1) 103-Asn; test: as above; format: cell-based; settings: Human immunodeficiency virus 1, CCRF-CEM; Table 5; read-out: EC50
Protocol: as §1

[4] = test system: HIV-1/II(0.1) 100-Ile; test: as above; format: cell-based; settings: Human immunodeficiency virus 1, CCRF-CEM; Table 5; read-out: EC50
Protocol: as §1

[5] = test system: HIV-1/III(0.1) 103-Asn; test: as above; format: cell-based; settings: Human immunodeficiency virus 1, CCRF-CEM; Table 5; read-out: EC50
Protocol: as §1

[6] = test system: HIV-1/IV(0.1) 103-Thr; test: as above; format: cell-based; settings: Human immunodeficiency virus 1, CCRF-CEM; Table 5; read-out: EC50
Protocol: as §1

[7] = test system: HIV-1/Nev (106-Ala); test: as above; format: cell-based; settings: Human immunodeficiency virus 1, CCRF-CEM; CEM cells, Table 1; read-out: 50% Effective Concentration
Protocol: as §1

[8] = test system: HIV-1/Pyr (181-Cys); test: as above; format: cell-based; settings: Human immunodeficiency virus 1, CCRF-CEM; CEM cells, Table 1; read-out: 50% Effective Concentration
Protocol: as §1

[9] = test system: HIV-1/TIBO R82150 (100-Ile); test: as above; format: cell-based; settings: Human immunodeficiency virus 1, CCRF-CEM; CEM cells, Table 1; read-out: 50% Effective Concentration
Protocol: as §1

[10] = test system: HIV-1/TIBO R82913 (103-Asn); test: as above; format: cell-based; settings: Human immunodeficiency virus 1, CCRF-CEM; CEM cells, Table 1; read-out: 50% Effective Concentration
Protocol: as §1

[11] = test system: HIV-1/TSAO-m^3 T (138-Lys); test: as above; format: cell-based; settings: Human immunodeficiency virus 1, CCRF-CEM; CEM cells, Table 1; read-out: 50% Effective Concentration
Protocol: as §1

[12] = test system: HIV-1/V(0.1) 101-Ile + 141-Glu; test: as above; format: cell-based; settings: Human immunodeficiency virus 1, CCRF-CEM; Table 5; read-out: EC50
Protocol: as §1

[13] = test system: HIV-1/V(0.5) 103-Asn; test: as above; format: cell-based; settings: Human immunodeficiency virus 1, CCRF-CEM; Table 5; read-out: EC50
Protocol: as §1

[14] = target: HIV-1 RT (WT) (Human immunodeficiency virus type 1 group M subtype B, UniProt P03366); test: biochemical; settings: IC50, anti-HIV-1 RT (WT) activity
Protocol: The reaction mixture (50 μl) contained 50 mM Tris.HCl, pH 7.8, 5 mM dithiothreitol, […] glutathione, 500 μM EDTA, 150 mM KCl, 5 mM MgCl2, 1.25 μg of bovine serum albumin, a fixed concentration of the labeled substrate [2,8-^3 H]dGTP (2.95 μM, 2 μCi), a fixed concentration of the template/primer poly(C).oligo(dG) (0.1 mM), 0.06% Triton X-100, 5 μl of inhibitor solution [containing various concentrations (5-fold dilutions) of the test compounds], and 5 μl of the RT preparation. The reaction mixtures were incubated at 37° C. for 30 min, at which time 100 μl of calf thymus DNA (150 μg/ml), 2 ml of Na4 P2 07 (0.1 M in 1M HCl), and 2 ml of trichloroacetic acid (10%, v/v) were added. The solutions were kept on ice for 30 min, after which the acid-insoluble material was washed and analyzed for radioactivity.
Compounds I, III, IV and V were evaluated for their inhibitory effect on recombinant HIV-1 RT.

[15] = test system: HIV-1/TIBO R82150 (100-Ile); settings: background, Balzarini I/II; cited from earlier work
[16] = CEM cells, Table 1, read-out: 50% Effective Concentration
[17] = HIV-1 (III8), Table 5, read-out: EC50

| SMILES | EC50 [1, 16] | EC50 [1, 17] | EC50 [2] | EC50 [3] | EC50 [4] | EC50 [5] | EC50 [6] | EC50 [7] | EC50 [8] | EC50 [9] | EC50 [10] | EC50 [11] | EC50 [12] | EC50 [13] | pIC50 [14] | resistance of HIV-1 strains containing the 100 Leu→Ile mutation in their RT [15] |
| --- | --- | --- | --- | --- | --- | --- | --- | --- | --- | --- | --- | --- | --- | --- | --- | --- |
| CCc1cc(NCc2nc3c(Cl)ccc(Cl)c3o2)c(O)nc1C [Pyridinone L-697,661, 3-{[(4,7-dichloro-1,3-benzoxazol-2-yl)methyl]amino}-5-ethyl-6-methylpyridin-2(1H)-one, reference compound] | 0.007 mg/L (≈ 0.0199 µM) | 0.007 mg/L (≈ 0.0199 µM) | 0.035 mg/L (≈ 0.0994 µM) | 0.3 mg/L (≈ 0.852 µM) | 0.63 mg/L (≈ 1.79 µM) | 0.03 mg/L (≈ 0.0852 µM) | 0.5 mg/L (≈ 1.42 µM) | 0.24 mg/L (≈ 0.681 µM) | 3.67 mg/L (≈ 10.4 µM) | 0.18 mg/L (≈ 0.511 µM) | 0.5 mg/L (≈ 1.42 µM) | 0.17 mg/L (≈ 0.483 µM) | 0.08 mg/L (≈ 0.227 µM) | 0.55 mg/L (≈ 1.56 µM) | 5.97 | – |
| CC(C)=CCN1Cc2cc(Cl)cc3[nH]c(=S)n(c23)C[C@@H]1C [TIBO R82913, reference compound] | 0.016 mg/L (≈ 0.0497 µM) | 0.02 mg/L (≈ 0.0621 µM) | > 2.5 mg/L | 1.1 mg/L (≈ 3.42 µM) | ≥ 5 mg/L | 0.23 mg/L (≈ 0.715 µM) | – | 0.5 mg/L (≈ 1.55 µM) | 2 mg/L (≈ 6.21 µM) | 1.75 mg/L (≈ 5.44 µM) | 4.3 mg/L (≈ 13.4 µM) | 0.3 mg/L (≈ 0.932 µM) | 0.16 mg/L (≈ 0.497 µM) | 5 mg/L (≈ 15.5 µM) | 5.69 | resistant |
